# Measurements published in patent US20230104487A1, “11-(4-CHLOROPHENYL)-4-(2,3-DIHYDRO-1H-INDOLE-1-CARBONYL)-3,11-DIMETHYL-5,10,DIOXATRICYCLO[7.4.0.0,2,6,]TRIDECA-1,3,6,8-TETRAEN-13-ONE AND DERIVATIVES AS DESTABILIZER OF CRY1 FOR THE TREATMENT OF CIRCADIAN RHYTHM ASSOCIATED DISEASES AND DISORDERS” (KOC UNIVERSITESI, priority 2019, published 2023).
# “Also recorded” adds a separate entry of the source.
# Tested on: Dbp, Cry1, Cry2, Per2 mRNA
# Experiment: RT-qPCR of clock genes, synchronized U2-OS cells
# Type: cell-based, human
# Details: 10 μM, 72-92 h
# Experimental: FIGS. 3A-3G are an illustration of FORMULA I decreased CRY1 level in synchronized U2-OS cells. Confluent U2-OS cells were synchronized by 2 h treatment with dexamethasone ([…]) and medium replaced with fresh medium containing FORMULA I or solvent (DMSO final 0.5%). Cells were harvested at indicated time points. FIGS. 3A-3B show lysed cells were analyzed via protein immunoblot technique. […] CRY levels in DMSO control divided by that of in FORMULA I treated samples were reported (mean±SEM, n=4). FIGS. 3C-3G show cells were subjected to reverse-transcription-quantitative polymerase chain reaction (RT-qPCR). […] Expression level of genes was normalized according to the expression level of that gene at 72ndh. (Data represent the mean±SEM, n=3 with duplicates ***: p<0.001 **: p<0.005, *: p<0.05 versus DMSO control by two-way ANOVA).
# QIAGEN RNeasy Mini Kit was used to isolate the mRNA. Protocol provided by the manufacturer was followed. […] Quantity of RNA was determined by Nanodrop 2000 (Thermo Scientific). […] For quantitative real time PCR (qRT-PCR) analysis cDNAs were further diluted 5-fold (1:5). mRNA expression levels were calculated by qRT-PCR with the SYBR Green. […] 10 seconds denaturation, 57 to 62° C. for 20 seconds annealing (the degree is determined by primer type) and 72° C. for 30 seconds of elongation, 35 cycles. […]
smiles,measurement,value
"Cc1c(C(=O)N2CCc3ccccc32)oc2ccc3c(c12)C(=O)CC(C)(c1ccc(Cl)cc1)O3 (centres unmarked) [FORMULA I, 11-(4-chlorophenyl)-4-(2,3-dihydro-1H-indole-1-carbonyl)-3,11-dimethyl-5,10,dioxatricyclo[7.4.0.0,2,6,]trideca-1,3,6,8-tetraen-13-one]",Dbp and Per2 mRNA levels,Increase in clock output genes of the Dbp and Per2 mRNA levels; also recorded: increased the level of Dbp and Per2
same,"peak time and abundance of Cry1, Cry2 (and Dbp) mRNA","changed the peak time without significantly changing their overall abundance; also recorded: changed the peak time of Dbp, Cry1 and Cry2"
